Marks after values point to notes of the source that are not given here. Each block holds one compound with its values, some of them ahead of it.
How the values were obtained:
[1] = tested on: Japanese patients with advanced solid tumors; assay: Dose-limiting toxicity and MTD determination, part 1; format: in vivo, human; settings: cycle 1; for DLT: stage IV, person
[2] = tested on: Japanese patients with advanced solid tumors; assay: Treatment-related adverse events, part 1; format: in vivo, human; settings: for Any AE (treatment-related), All grades / Any AE (treatment-related), Grade 3/4 / Blood creatinine increased (treatment-related AE), All grades / Blood creatinine increased (treatment-related AE), Grade 3/4 / Diarrhea (treatment-related AE), All grades / Diarrhea (treatment-related AE), Grade 3/4 / Fatigue (treatment-related AE), All grades / Fatigue (treatment-related AE), Grade 3/4 / Lymphocytes decreased (treatment-related AE), All grades / Lymphocytes decreased (treatment-related AE), Grade 3/4 / Neutropenia (treatment-related), all grades / Neutropenia (treatment-related), grade 3/4 / Neutrophils decreased (treatment-related AE), All grades / Neutrophils decreased (treatment-related AE), Grade 3/4 / Platelets decreased (treatment-related AE), All grades / Platelets decreased (treatment-related AE), Grade 3/4 / WBCs decreased (treatment-related AE), All grades / WBCs decreased (treatment-related AE), Grade 3/4: part 1, n = 6
[3] = Plasma palbociclib pharmacokinetics, part 1; format: in vivo, human; settings: for AUC(0-t): geometric mean (geometric %CV); for half-life: t½, arithmetic mean ± SD
[4] = Plasma palbociclib concentrations with letrozole, part 2; format: in vivo, human; settings: palbociclib 125 mg + letrozole 2.5 mg once daily, multiple doses, part 2, day 15 of cycles 1 and 2
advanced solid tumors = assay: Antitumor activity; format: in vivo, human
[5] = tested on: estrogen receptor‐positive (ER+) luminal breast cancer cell lines; settings: cited from earlier work
[6] = Trough plasma letrozole concentrations, part 2; format: in vivo, human
[7] = 100 mg, part 1, patient: breast cancer (first listed)

SMILES: CC(=O)c1c(C)c2cnc(Nc3ccc(N4CCNCC4)cn3)nc2n(C2CCCC2)c1=O [Palbociclib]
Patients with dose-limiting toxicity per dose level ([1]; 100 mg and 125 mg once daily, part 1, n = 6 each): one patient per dose level
DLT ([1]; 100 mg once daily, patient: colon cancer): None
DLT ([1]; 100 mg once daily, patient: rectal cancer): None
DLT ([1]; 125 mg once daily, patient: esophageal cancer): None
DLT ([1]; 125 mg once daily, patient: fibroma): None
DLT ([1]; 125 mg once daily, patient: rectal cancer): None
Any AE (treatment-related), All grades ([2]; 100 mg once daily): 6 (100) n (%)
Any AE (treatment-related), Grade 3/4 ([2]; 100 mg once daily): 4 (67) n (%)
Blood creatinine increased (treatment-related AE), All grades ([2]; 100 mg once daily): 2 (33) n (%)
Blood creatinine increased (treatment-related AE), Grade 3/4 ([2]; 100 mg once daily): 0 (0) n (%)
Diarrhea (treatment-related AE), All grades ([2]; 100 mg once daily): 0 (0) n (%)
Diarrhea (treatment-related AE), Grade 3/4 ([2]; 100 mg once daily): 0 (0) n (%)
Fatigue (treatment-related AE), All grades ([2]; 100 mg once daily): 0 (0) n (%)
Fatigue (treatment-related AE), Grade 3/4 ([2]; 100 mg once daily): 0 (0) n (%)
Lymphocytes decreased (treatment-related AE), All grades ([2]; 100 mg once daily): 1 (17) n (%)
Lymphocytes decreased (treatment-related AE), Grade 3/4 ([2]; 100 mg once daily): 1 (17) n (%)
Neutropenia (treatment-related), all grades ([2]; 100 mg once daily): 83%
Neutropenia (treatment-related), grade 3/4 ([2]; 100 mg once daily): 67%
Neutrophils decreased (treatment-related AE), All grades ([2]; 100 mg once daily): 5 (83) n (%)
Neutrophils decreased (treatment-related AE), Grade 3/4 ([2]; 100 mg once daily): 4 (67) n (%)
Platelets decreased (treatment-related AE), All grades ([2]; 100 mg once daily): 1 (17) n (%)
Platelets decreased (treatment-related AE), Grade 3/4 ([2]; 100 mg once daily): 0 (0) n (%)
WBCs decreased (treatment-related AE), All grades ([2]; 100 mg once daily): 4 (67) n (%)
WBCs decreased (treatment-related AE), Grade 3/4 ([2]; 100 mg once daily): 2 (33) n (%)
Any AE (treatment-related), All grades ([2]; 125 mg once daily): 5 (83) n (%)
Any AE (treatment-related), Grade 3/4 ([2]; 125 mg once daily): 4 (67) n (%)
Blood creatinine increased (treatment-related AE), All grades ([2]; 125 mg once daily): 0 (0) n (%)
Blood creatinine increased (treatment-related AE), Grade 3/4 ([2]; 125 mg once daily): 0 (0) n (%)
Diarrhea (treatment-related AE), All grades ([2]; 125 mg once daily): 2 (33) n (%)
Diarrhea (treatment-related AE), Grade 3/4 ([2]; 125 mg once daily): 0 (0) n (%)
Fatigue (treatment-related AE), All grades ([2]; 125 mg once daily): 2 (33) n (%)
Fatigue (treatment-related AE), Grade 3/4 ([2]; 125 mg once daily): 0 (0) n (%)
Lymphocytes decreased (treatment-related AE), All grades ([2]; 125 mg once daily): 3 (50) n (%)
Lymphocytes decreased (treatment-related AE), Grade 3/4 ([2]; 125 mg once daily): 2 (33) n (%)
Neutropenia (treatment-related), all grades ([2]; 125 mg once daily): 67%
Neutropenia (treatment-related), grade 3/4 ([2]; 125 mg once daily): 33%
Neutrophils decreased (treatment-related AE), All grades ([2]; 125 mg once daily): 4 (67) n (%)
Neutrophils decreased (treatment-related AE), Grade 3/4 ([2]; 125 mg once daily): 2 (33) n (%)
Platelets decreased (treatment-related AE), All grades ([2]; 125 mg once daily): 2 (33) n (%)
Platelets decreased (treatment-related AE), Grade 3/4 ([2]; 125 mg once daily): 1 (17) n (%)
WBCs decreased (treatment-related AE), All grades ([2]; 125 mg once daily): 5 (83) n (%)
WBCs decreased (treatment-related AE), Grade 3/4 ([2]; 125 mg once daily): 2 (33) n (%)
Grade ≥3 treatment-related non-hematologic AEs ([2]; all cohorts (100 mg, 125 mg, 125 mg + letrozole)): No grade ≥3 treatment‐related non‐hematologic AEs were observed
Deaths ([2]; whole study, 18 patients): No deaths
Dose proportionality of exposure ([3]; 125 mg vs 100 mg, part 1): higher than dose‐proportional exposure
Tmax ([3]; 125 mg, single dose, n = 6, median (range)): 4.0 (3.9–8.0) h
AUC(0-inf) ([3]; human, plasma, oral, 100 mg): 1040 ng·h/mL
Cmax ([3]; human, plasma, oral, 100 mg): 41.4 ng/mL
Tmax ([3]; human, plasma, oral, 100 mg): 5 h
AUC(0-t) ([3]; human, plasma, oral, 100 mg, AUClast, single dose, n = 6): 972 ng·h/mL
AUC(0-t) ([3]; human, plasma, oral, 100 mg, AUCτ (= AUC0–24), 100 mg once daily, multiple doses (day 8 of cycle 1), n = 6): 1280 ng·h/mL
AUC(0-t) ([3]; human, plasma, oral, 100 mg, AUCτ (= AUC0–24), single dose, n = 6): 548 ng·h/mL
half-life ([3]; human, plasma, oral, 100 mg, 100 mg once daily, multiple doses (day 8 of cycle 1), n = 6): 23.8 ± 6.8 h
half-life ([3]; human, plasma, oral, 100 mg, single dose, n = 6): 25.7 ± 5.3 h
AUC(0-inf) ([3]; human, plasma, oral, 125 mg): 2480 ng·h/mL
Tmax ([3]; human, plasma, oral, 125 mg): 4 to 5 h
concentration at 4 h ([3]; human, plasma, oral, 125 mg): 172 ng/mL
AUC(0-t) ([3]; human, plasma, oral, 125 mg, AUClast, single dose, n = 6): 2400 ng·h/mL
AUC(0-t) ([3]; human, plasma, oral, 125 mg, AUCτ (= AUC0–24), 125 mg once daily, multiple doses (day 8 of cycle 1), n = 6): 2840 ng·h/mL
AUC(0-t) ([3]; human, plasma, oral, 125 mg, AUCτ (= AUC0–24), single dose, n = 6): 1320 ng·h/mL
half-life ([3]; human, plasma, oral, 125 mg, 125 mg once daily, multiple doses (day 8 of cycle 1), n = 6): 23.2 ± 7.7 h
half-life ([3]; human, plasma, oral, 125 mg, single dose, n = 6): 23.9 ± 2.7 h
Plasma palbociclib concentration, Predose [Ctrough], geometric mean ([3]; palbociclib 125 mg alone, day 8 of part 1): 72.8 ng/mL
Plasma palbociclib concentration, Predose [Ctrough], geometric mean [4]: 88.5 ng/mL
Patients with stable disease (advanced solid tumors; 100 mg, part 1, n = 6): three of six patients
Best response (advanced solid tumors; [7]): Indeterminate
Progression‐free survival (advanced solid tumors; [7]): 29 days
Progression‐free survival (advanced solid tumors; 100 mg, part 1, patient: breast cancer (second listed)): 75 days
Progression‐free survival (advanced solid tumors; 100 mg, part 1, patient: colon cancer): 29 days
Progression‐free survival (advanced solid tumors; 100 mg, part 1, patient: medullary thyroid cancer): 57 days
Progression‐free survival (advanced solid tumors; 100 mg, part 1, patient: ovarian cancer): 121 days
Progression‐free survival (advanced solid tumors; 100 mg, part 1, patient: rectal cancer): 223 days
Patients with stable disease (advanced solid tumors; 125 mg, part 1, n = 6): one of six patients
Progression‐free survival (advanced solid tumors; 125 mg, part 1, patient: acinar cell carcinoma of pancreas): 29 days
Progression‐free survival (advanced solid tumors; 125 mg, part 1, patient: breast cancer): 57 days
Progression‐free survival (advanced solid tumors; 125 mg, part 1, patient: esophageal carcinoma): 280 days
Progression‐free survival (advanced solid tumors; 125 mg, part 1, patient: fibroma): 28 days
Progression‐free survival (advanced solid tumors; 125 mg, part 1, patient: inflammatory myofibroblastic tumor): 28 days
Progression‐free survival (advanced solid tumors; 125 mg, part 1, patient: rectal cancer): 32 days
DCR (objective response or stable disease ≥24 weeks) (advanced solid tumors; 100 or 125 mg, part 1): 17%
Objective responses (CR or PR) (advanced solid tumors; 100 or 125 mg, part 1): not reported
Patients with extended stable disease (≥24 weeks) (advanced solid tumors; part 1, 100- or 125-mg dose (rectal and esophageal cancer)): two patients
Patients with stable disease (advanced solid tumors; part 1 overall (100 and 125 mg, n = 12)): Four patients had stable disease
Antitumor activity when combined with tamoxifen [5]: synergistic antitumor activity
Retinoblastoma protein hyperphosphorylation [5]: inhibition of retinoblastoma protein hyperphosphorylation
Tumor cell growth [5]: arrest tumor cell growth

Predose plasma letrozole concentration, geometric mean Ctrough ([6]; letrozole 2.5 mg alone, part 2, day 1 of cycles 2 and 3): 146 ^† ng/mL
Predose plasma letrozole concentration, geometric mean Ctrough ([6]; palbociclib 125 mg + letrozole 2.5 mg, part 2, day 15 of cycles 1 and 2): 131 ^‡ ng/mL
SMILES: N#Cc1ccc(C(c2ccc(C#N)cc2)n2cncn2)cc1 [letrozole]
